Calls of active or inactive are those of the source.
Columns and labels:
Fatty acid synthase [1] = molecular target: T1, Fatty acid synthase (Homo sapiens, UniProt P49327); experiment: inhibition of human FAS-TE enzyme activity – biochemical, endpoint fluorescence intensity, uHTS hits, dose response (AID 624327); assay type: functional;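 note: fluorescence from hydrolysis of an O-methyl fluorescein acyl ester substrate by the enzyme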
Fatty acid synthase [2] = molecular target: T1, Fatty acid synthase; experiment: inhibition of human FAS-TE enzyme activity – biochemical, kinetic fluorescence intensity, dose response (AID 624326); assay type: functional;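 note: rate of fluorescence rise from hydrolysis of a fluorogenic O-methyl fluorescein ester substrate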
[3] = Trypanosoma cruzi growth suppression in host cells – NIH3T3 host cells, beta-gal luminescence, confirmation (AID 2044); assay type: functional, cell-based;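 note: intracellular parasites grown in NIH/3T3 mouse fibroblasts as host cells; luminescent beta-galactosidase reporter signal from transgenic T. cruzi replicating inside host cells; inhibitors lower the luminescence signal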
[4] = NIH3T3 cell viability loss – ATP luminescence, mouse fibroblasts, counter-screen, dose response (AID 2010); assay type: functional, cell-based;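 note: cells exposed to compound for about 90 hours before reading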
cells = assay type: functional
[5] = molecular target: T2, Polyadenylate-binding protein 1 (Homo sapiens, UniProt P11940); experiment: MLLE binding blockers, Cy5 peptide tracer – biochemical, fluorescence polarization, Cy5-PAM2 peptide, secondary, miRNA deadenylation inhibitor project, dose response (AID 602260); assay type: functional; conditions: read-out: IC50_Mean
T2 sequence (P11940 whole entry, the tested form may be a part): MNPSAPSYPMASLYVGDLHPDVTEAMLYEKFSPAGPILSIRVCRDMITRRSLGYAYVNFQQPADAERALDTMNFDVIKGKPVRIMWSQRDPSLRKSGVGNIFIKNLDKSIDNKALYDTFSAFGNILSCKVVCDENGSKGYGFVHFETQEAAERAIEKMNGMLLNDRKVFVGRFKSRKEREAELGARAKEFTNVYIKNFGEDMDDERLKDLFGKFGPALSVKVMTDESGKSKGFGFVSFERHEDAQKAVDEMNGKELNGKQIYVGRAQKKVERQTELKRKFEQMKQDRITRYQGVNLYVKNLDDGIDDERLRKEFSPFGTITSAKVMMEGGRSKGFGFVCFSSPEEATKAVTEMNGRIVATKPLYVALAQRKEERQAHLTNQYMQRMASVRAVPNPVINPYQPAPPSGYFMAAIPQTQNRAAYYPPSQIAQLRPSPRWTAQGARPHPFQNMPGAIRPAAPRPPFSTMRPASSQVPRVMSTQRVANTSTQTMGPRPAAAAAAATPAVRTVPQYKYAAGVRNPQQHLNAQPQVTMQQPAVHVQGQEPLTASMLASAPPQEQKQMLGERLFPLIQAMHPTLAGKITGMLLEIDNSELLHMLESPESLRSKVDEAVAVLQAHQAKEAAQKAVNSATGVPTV

[6] = molecular target: T2, Polyadenylate-binding protein 1; experiment: MLLE domain peptide-binding blockers, IC50 – biochemical, fluorescence polarization, FITC-PAM2 peptide, dose response (AID 602259); assay type: functional; conditions: read-out: IC50_Mean
INS1 = experiment: INS-1E survival protection against cytokine death – cell-based, luminescence, retest, dose response (AID 449756); assay type: functional; conditions: Rattus norvegicus;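 note: cell death triggered by IL-1 beta plus TNF-alpha plus IFN-gamma mixture; protective hits raise ATP signal compared with cytokine alone wells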
[7] = molecular target: FAD-linked sulfhydryl oxidase ALR (Homo sapiens, UniProt P55789); experiment: ALR-catalysed DTT oxidation blockers – biochemical, H2O2 detection, luminescence, cherry-pick, dose response (AID 493248)
FAD-linked sulfhydryl oxidase ALR, sequence (P55789 whole entry): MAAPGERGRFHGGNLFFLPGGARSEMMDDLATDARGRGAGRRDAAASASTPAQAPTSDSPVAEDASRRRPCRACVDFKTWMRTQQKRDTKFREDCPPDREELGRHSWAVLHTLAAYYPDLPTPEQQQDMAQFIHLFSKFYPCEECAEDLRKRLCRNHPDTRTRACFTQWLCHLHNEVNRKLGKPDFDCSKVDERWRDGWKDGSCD

[8] = molecular target: T3, Heat shock factor protein 1 (Mus musculus, UniProt P38532); experiment: enhancement of HSF1-driven luciferase signal – cell-based, NIH3T3, luminescence, dose retest, confirmation (AID 435004); assay type: functional;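 note: stress induced by proteasome inhibitor MG132 added 30 min after compound; luciferase reporter driven by HSF1 response element in NIH3T3 cells; actives raise luminescence as potentiators of the MG132 stress response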
T3 sequence (P38532 whole entry): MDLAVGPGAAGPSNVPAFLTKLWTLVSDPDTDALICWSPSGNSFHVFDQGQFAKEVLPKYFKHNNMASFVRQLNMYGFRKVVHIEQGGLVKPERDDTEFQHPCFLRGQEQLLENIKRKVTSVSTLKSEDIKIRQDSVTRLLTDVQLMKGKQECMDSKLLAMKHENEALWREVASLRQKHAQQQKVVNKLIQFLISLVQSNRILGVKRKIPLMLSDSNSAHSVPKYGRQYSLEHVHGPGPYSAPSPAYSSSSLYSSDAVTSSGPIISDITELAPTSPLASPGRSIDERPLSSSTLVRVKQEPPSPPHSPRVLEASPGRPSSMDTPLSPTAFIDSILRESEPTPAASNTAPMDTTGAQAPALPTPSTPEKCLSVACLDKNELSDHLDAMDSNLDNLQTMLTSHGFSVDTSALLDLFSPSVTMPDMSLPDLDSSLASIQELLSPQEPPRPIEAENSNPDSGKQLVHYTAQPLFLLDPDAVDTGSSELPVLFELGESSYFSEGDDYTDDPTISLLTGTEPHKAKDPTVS

Paired box protein Pax-8 = Paired box protein Pax-8 (Homo sapiens, UniProt Q06710); experiment: PAX8 transcriptional activity inhibition in RMG-I – RMG-I cells, luciferase, cherry-pick, dose response (AID 687027); assay type: functional, cell-based;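 note: luciferase reporter driven by Pax8 target thyroperoxidase promoter measured by SteadyGlo luminescence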
Paired box protein Pax-8, sequence (Q06710 whole entry): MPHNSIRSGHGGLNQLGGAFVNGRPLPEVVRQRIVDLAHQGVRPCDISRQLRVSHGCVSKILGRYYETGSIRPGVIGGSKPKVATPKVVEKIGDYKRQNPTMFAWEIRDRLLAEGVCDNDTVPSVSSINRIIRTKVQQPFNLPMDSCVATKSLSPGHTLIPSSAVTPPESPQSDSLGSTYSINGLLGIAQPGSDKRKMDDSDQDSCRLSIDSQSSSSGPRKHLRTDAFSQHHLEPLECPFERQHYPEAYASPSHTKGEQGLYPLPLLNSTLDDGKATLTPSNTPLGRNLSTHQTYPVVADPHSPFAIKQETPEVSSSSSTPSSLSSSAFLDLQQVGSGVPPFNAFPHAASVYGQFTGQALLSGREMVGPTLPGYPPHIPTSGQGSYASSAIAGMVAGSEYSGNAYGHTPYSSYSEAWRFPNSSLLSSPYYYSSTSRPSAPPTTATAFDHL

T1 sequence (P49327 whole entry): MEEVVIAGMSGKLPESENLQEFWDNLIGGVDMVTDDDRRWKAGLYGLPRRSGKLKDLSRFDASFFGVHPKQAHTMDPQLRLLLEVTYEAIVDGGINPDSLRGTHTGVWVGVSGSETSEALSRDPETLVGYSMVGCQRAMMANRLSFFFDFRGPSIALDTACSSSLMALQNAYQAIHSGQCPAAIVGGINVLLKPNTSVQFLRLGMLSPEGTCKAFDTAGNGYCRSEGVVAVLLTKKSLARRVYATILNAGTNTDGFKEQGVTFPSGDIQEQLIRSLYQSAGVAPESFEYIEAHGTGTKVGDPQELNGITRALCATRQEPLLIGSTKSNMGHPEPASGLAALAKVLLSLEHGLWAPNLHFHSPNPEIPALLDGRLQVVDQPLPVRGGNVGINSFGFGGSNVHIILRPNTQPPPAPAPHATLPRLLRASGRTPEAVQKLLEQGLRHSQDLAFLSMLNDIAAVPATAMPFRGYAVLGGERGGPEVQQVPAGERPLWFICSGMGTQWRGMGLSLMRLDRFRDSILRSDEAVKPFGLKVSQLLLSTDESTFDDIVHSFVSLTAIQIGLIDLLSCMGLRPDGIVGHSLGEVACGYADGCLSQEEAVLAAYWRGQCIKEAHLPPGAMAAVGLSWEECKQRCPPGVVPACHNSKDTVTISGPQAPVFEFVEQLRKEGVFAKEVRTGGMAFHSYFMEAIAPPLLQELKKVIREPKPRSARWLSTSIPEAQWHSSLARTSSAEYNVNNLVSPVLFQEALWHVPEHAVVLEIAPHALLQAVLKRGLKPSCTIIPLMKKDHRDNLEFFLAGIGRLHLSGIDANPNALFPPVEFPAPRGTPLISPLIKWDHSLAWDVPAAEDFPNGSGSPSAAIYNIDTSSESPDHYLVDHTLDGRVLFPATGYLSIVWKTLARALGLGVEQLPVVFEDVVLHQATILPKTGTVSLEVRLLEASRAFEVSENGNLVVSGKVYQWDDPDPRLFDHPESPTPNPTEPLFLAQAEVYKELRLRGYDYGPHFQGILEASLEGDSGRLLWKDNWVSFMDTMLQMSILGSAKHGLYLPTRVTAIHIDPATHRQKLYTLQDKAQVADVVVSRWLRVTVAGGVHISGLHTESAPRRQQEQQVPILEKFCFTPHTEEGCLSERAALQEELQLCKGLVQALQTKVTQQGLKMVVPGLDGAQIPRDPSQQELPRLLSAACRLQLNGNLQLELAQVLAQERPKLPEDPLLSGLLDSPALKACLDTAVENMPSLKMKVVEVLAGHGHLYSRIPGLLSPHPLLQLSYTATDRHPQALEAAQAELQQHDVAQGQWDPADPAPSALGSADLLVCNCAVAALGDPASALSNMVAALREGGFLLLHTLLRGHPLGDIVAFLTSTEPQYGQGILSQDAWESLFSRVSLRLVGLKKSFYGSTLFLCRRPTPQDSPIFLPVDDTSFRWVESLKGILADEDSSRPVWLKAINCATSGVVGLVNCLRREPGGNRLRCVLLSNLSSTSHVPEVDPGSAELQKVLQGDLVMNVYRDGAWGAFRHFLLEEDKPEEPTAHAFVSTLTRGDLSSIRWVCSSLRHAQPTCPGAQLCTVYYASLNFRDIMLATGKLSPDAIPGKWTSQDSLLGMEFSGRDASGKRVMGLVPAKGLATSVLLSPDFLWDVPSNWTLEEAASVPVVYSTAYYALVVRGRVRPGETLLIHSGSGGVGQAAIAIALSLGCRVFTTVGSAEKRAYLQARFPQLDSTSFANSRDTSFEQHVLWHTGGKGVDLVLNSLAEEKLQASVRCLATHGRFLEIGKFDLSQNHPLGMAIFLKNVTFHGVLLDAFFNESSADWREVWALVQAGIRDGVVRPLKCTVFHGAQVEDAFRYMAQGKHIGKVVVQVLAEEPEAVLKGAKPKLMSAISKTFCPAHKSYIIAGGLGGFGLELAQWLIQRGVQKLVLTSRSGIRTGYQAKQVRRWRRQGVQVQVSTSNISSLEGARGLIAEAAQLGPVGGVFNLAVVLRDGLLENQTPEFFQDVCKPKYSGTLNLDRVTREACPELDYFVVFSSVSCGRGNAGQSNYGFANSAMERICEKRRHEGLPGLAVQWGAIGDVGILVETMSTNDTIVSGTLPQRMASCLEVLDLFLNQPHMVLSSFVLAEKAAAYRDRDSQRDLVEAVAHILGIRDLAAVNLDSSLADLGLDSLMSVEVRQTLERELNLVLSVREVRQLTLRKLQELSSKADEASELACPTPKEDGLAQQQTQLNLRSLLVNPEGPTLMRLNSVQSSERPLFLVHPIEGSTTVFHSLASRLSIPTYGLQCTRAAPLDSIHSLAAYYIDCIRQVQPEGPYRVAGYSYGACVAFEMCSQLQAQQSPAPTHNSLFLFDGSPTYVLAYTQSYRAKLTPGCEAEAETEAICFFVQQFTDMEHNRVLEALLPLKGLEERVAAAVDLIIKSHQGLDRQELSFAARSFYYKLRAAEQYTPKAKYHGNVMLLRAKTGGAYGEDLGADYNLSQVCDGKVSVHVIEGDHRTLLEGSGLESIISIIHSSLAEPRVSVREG

Which IC50 (Fatty acid synthase [1]) does the source give for `COc1ccc([C@H]2CC(=O)C=C(c3ccc(C)c([N+](=O)[O-])c3)C2)cc1` here?
The IC50 was 2.65 µM (active).

What about the IC50 (Fatty acid synthase [2]) of the same compound?
Its IC50 is 2.14 µM (active).

What does the source list for `CC(=O)Nc1ccc(NC(=O)c2cc([N+](=O)[O-])cc([N+](=O)[O-])c2)cc1`?
EC50 [3]: 1.63 µM (active); EC50 [4]: > 60 µM (not active); IC50 (cells): 13.9 µM (active)

For `CCN(CC(=O)Nc1c(F)cccc1F)C(=O)Cc1ccc2c(c1)CCC2`, which IC50 [5] is on record?
The IC50 was > 66 µM (inactive).

What about the IC50 [6] of the same compound?
Its IC50 is > 66 µM (inactive).

Which AC50 (INS1) does the source give for `Cc1occc(=O)c1OC(=O)Nc1ccc(Cl)c(Cl)c1` here?
The AC50 was 5.88 µM (active).

Which AC50 [7] does the source give for `O=C(c1cccs1)N1CCN=C1SCc1cccnc1` here?
The AC50 was 1.27 µM (active).

With `Nc1ccc(NC(=O)c2cccs2)cc1` as the compound, how does the AC50 [7] read?
The AC50 was 0.515 µM (active).

For `CCOC(=O)N1CCN(Cc2c(O)ccc3ccccc23)CC1`, which IC50 [5] is on record?
Its IC50 is > 66 µM (inactive).

What about the IC50 [6] of the same compound?
The IC50 was > 66 µM (inactive).

For `COc1ccc(C(=O)OCC(=O)Nc2ccccc2)cc1[N+](=O)[O-]`, which IC50 (Fatty acid synthase [1]) is on record?
Its IC50 is 7.38 µM (active).

And the IC50 (Fatty acid synthase [2])?
Its IC50 is 9.96 µM (active).

What does the source list for `Cc1ccc(S(=O)(=O)N(C)C)cc1NC(S)=NC(C)CCCC(C)C` (stereo not drawn)?
EC50 [8]: > 260 µM (inactive); IC50 (Fatty acid synthase [1]): 12.3 µM (active); IC50 (Fatty acid synthase [2]): 9.82 µM (active)

With `CCn1c2ccccc2c2nnc(SCc3ccc(C(=O)OC)o3)nc21` as the compound, how does the IC50 [5] read?
The IC50 was > 66 µM (inactive).

What about the IC50 [6] of the same compound?
The IC50 was > 66 µM (inactive).

Which results are given for `COc1ccc(C2C=C(c3ccc(C)cc3)Nc3ncnn32)cc1` (stereo not drawn)?
IC50 [5]: > 66 µM (inactive); IC50 [6]: > 66 µM (inactive)

With `Cc1ccc(S(=O)(=O)N(C)CC(=O)Nc2ccccc2N2CCCC2)cc1` as the compound, how does the AC50 [7] read?
The AC50 was 2.39 µM (active).

With `O=C(NC1CCCCC1)C1CC(=O)N(c2cccc([N+](=O)[O-])c2)C1` (stereo not drawn) as the compound, how does the IC50 (Fatty acid synthase [1]) read?
The IC50 was 3.47 µM (active).

And the IC50 (Fatty acid synthase [2])?
Its IC50 is 1.89 µM (active).

What does the source list for `CNC(=S)NN=C(C)c1ccc(OC)cc1O`?
IC50 [5]: > 66 µM (inactive); IC50 [6]: > 66 µM (inactive)

For `Cc1ccc(Oc2ccc(S(=O)(=O)Nc3ccc(C(=O)O)cc3)cc2)cc1`, which AC50 [7] is on record?
The AC50 was 0.714 µM (active).

For `CC(=O)c1cccc(OC(=O)Oc2cccc(C(C)=O)c2)c1`, which IC50 (Fatty acid synthase [1]) is on record?
The IC50 was 10.5 µM (active).

What about the IC50 (Fatty acid synthase [2]) of the same compound?
Its IC50 is 6.11 µM (active).

With `C[C@@H]1CCCCO[C@@H](CN(C)C(=O)C2CCCCC2)[C@H](C)CN([C@H](C)CO)C(=O)c2cc(NC(=O)Nc3ccc(F)cc3)ccc2O1` as the compound, how does the AC50 (Paired box protein Pax-8) read?
The AC50 was 8.22 µM (active).

Which AC50 (Paired box protein Pax-8) does the source give for `N#Cc1cccc(-c2ccc3c(c2)[C@@H]2[C@@H](CCN2S(=O)(=O)c2ccc(F)cc2)[C@@H](CO)N3)c1` here?
The AC50 was 6.61 µM (active).

With `CC(=O)Oc1ccc(/C=N/NC(=O)C2CCCN2S(=O)(=O)c2ccc(Cl)cc2)cc1` (stereo not drawn) as the compound, how does the AC50 [7] read?
The AC50 was 12.7 µM (active).

Which AC50 [7] does the source give for `O=C1CCC(=O)N1c1ccc(CSc2nc3ccccc3[nH]2)cc1` here?
The AC50 was 1.22 µM (active).

From ChEMBL document CHEMBL1201862, “PubChem BioAssay data set” (2004)
